Assays:
[1] = tested on: Monocotyledonous and dicotyledonous test plants; test: Herbicidal action before emergence of the plants (pre-emergence action); format: in vivo; details: evaluated after 3 weeks, nine-step scale; for Pre-emergence action, Abutilon / Pre-emergence action, Amaranthus / Pre-emergence action, Chenop. / Pre-emergence action, Digitaria / Pre-emergence action, Echino. / Pre-emergence action, Panicum: 250 g/ha; for pre-emergence action, Cyperus / pre-emergence action, Ipomoea / pre-emergence action, Setaria / pre-emergence action, Sinapis / pre-emergence action, Solanum / pre-emergence action, Stellaria: 2000 g/ha
Summary of the method: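 Sprayed onto soil immediately after sowing as WP suspension or EC emulsion at 2 kg or 250 g a.i./ha (500 l water/ha). Greenhouse growth for 3 weeks, then scored on a nine-step scale (1 = complete damage, 9 = no effect).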

[2] = tested on: Monocotyledonous and dicotyledonous test plants; test: Post-emergence herbicidal action; format: in vivo; details: evaluated after approximately 18 days; for Post-emergence action: Abutilon (score, nine-step scale) / Post-emergence action: Chenop. (score, nine-step scale) / Post-emergence action: Digitaria (score, nine-step scale) / Post-emergence action: Echino. (score, nine-step scale) / Post-emergence action: Ipopur. (score, nine-step scale) / Post-emergence action: Panicum (score, nine-step scale) / Post-emergence action: Xanth. (score, nine-step scale): 250 g/ha, sprayed at 4- to 6-leaf stage; for Post-emergence action, Ipomoea / Post-emergence action, Lolium / Post-emergence action, Setaria / Post-emergence action, Sinapis / Post-emergence action, Solanum / Post-emergence action, Stellaria: 2000 g/ha, sprayed in 4- to 6-leaf stage, nine-step scale
Summary of the method: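 Scoring uses a 1–9 scale (1 complete damage, 9 no effect), read roughly 18 days post-application. Compounds were applied post-emergence at 4–6 leaves, as aqueous suspension (25% wettable powder) or emulsion (25% emulsion concentrate), at 250 g or 2 kg a.i./ha in 500 l water/ha.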

SMILES	pre-emergence action, Cyperus [1]	pre-emergence action, Ipomoea [1]	pre-emergence action, Setaria [1]	pre-emergence action, Sinapis [1]	pre-emergence action, Solanum [1]	pre-emergence action, Stellaria [1]	Post-emergence action, Ipomoea [2]	Post-emergence action, Lolium [2]	Post-emergence action, Setaria [2]	Post-emergence action, Sinapis [2]	Post-emergence action, Solanum [2]	Post-emergence action, Stellaria [2]	other results
CCOC(=O)OCc1nc(C(F)(F)F)ccc1C(=O)C1=C(O)C(C)(C)C(=O)C(C)(C)C1=O [Compound A1208-B354]													Pre-emergence action, Abutilon [1]: 1; Pre-emergence action, Amaranthus [1]: 1; Pre-emergence action, Chenop. [1]: 1; Pre-emergence action, Digitaria [1]: 1; Pre-emergence action, Echino. [1]: 1; Pre-emergence action, Panicum [1]: 1; Post-emergence action: Abutilon (score, nine-step scale) [2]: 1; Post-emergence action: Chenop. (score, nine-step scale) [2]: 2; Post-emergence action: Digitaria (score, nine-step scale) [2]: 4; Post-emergence action: Echino. (score, nine-step scale) [2]: 2; Post-emergence action: Ipopur. (score, nine-step scale) [2]: 2; Post-emergence action: Panicum (score, nine-step scale) [2]: 3; Post-emergence action: Xanth. (score, nine-step scale) [2]: 2
Cc1cc(C(=O)C2=C(O)C(C)(C)CCC2=O)c(C)nc1C(F)(F)F [Compound A184-B24]	1	3	2	2	1	2	1	2	2	1	2	2	
CC1(C)CCC(=O)C(C(=O)c2ccc(C(F)(F)F)nc2C(F)F)=C1O [Compound A18-B24]	1	1	1	1	1	2	1	2	2	1	2	2	
Cc1nc(C(F)(F)F)ccc1C(=O)C1=C(O)C(C)(C)C(C)CC1=O (centres unmarked) [Compound A2-B156]	1	2	1	2	1	2	1	2	2	1	2	2	
Cc1nc(C(F)(F)F)ccc1C(=O)C1=C(O)C(C)C(C)CC1=O (centres unmarked) [Compound A2-B134]	1	2	1	2	1	1	2	2	1	1	1	2	
Cc1nc(C(F)(F)F)ccc1C(=O)C1=C(O)C(C(C)C)CC(C)C1=O (centres unmarked) [Compound A2-B49]	2	4	2	2	1	2	2	2	2	1	2	2	
Cc1cc(C(=O)C2=C(O)CCCC2=O)c(C)nc1C(F)(F)F [Compound A184-B1]	2	4	2	2	1	2	1	3	2	1	2	2	
Cc1nc(C(F)(F)F)ccc1C(=O)C1=C(O)C(C)CC(C)C1=O (stereo not drawn) [A2-B46 (cis)]	1	2	1	2	1	2	1	2	3	1	2	2	
COCc1nc(C(F)(F)F)ccc1C(=O)C1=C(O)C(C)(C)CCC1=O [Compound A8-B24]	1	2	2	2	1	3	2	2	2	1	2	2	
Cc1nc(C(F)(F)F)ccc1C(=O)C1=C(O)C(C)C(C)(C)CC1=O (centres unmarked) [Compound A2-B1095]	3	4	2	2	1	2	1	2	4	1	2	2	
Cc1nc(C(F)(F)F)ccc1C(=O)C1=C(O)C(C)(C)CC(C)C1=O (centres unmarked) [Compound A2-B68]	1	2	1	2	1	2	1	2	2	1	1	2	
CCOC(=O)C1C(O)=C(C(=O)c2ccc(C(F)(F)F)nc2C)C(=O)CC1C (centres unmarked) [Compound A2-B145]													Pre-emergence action, Abutilon [1]: 2; Pre-emergence action, Amaranthus [1]: 3; Pre-emergence action, Chenop. [1]: 1; Pre-emergence action, Digitaria [1]: 2; Pre-emergence action, Echino. [1]: 4; Pre-emergence action, Panicum [1]: 2; Post-emergence action: Abutilon (score, nine-step scale) [2]: 3; Post-emergence action: Chenop. (score, nine-step scale) [2]: 1; Post-emergence action: Digitaria (score, nine-step scale) [2]: 2; Post-emergence action: Echino. (score, nine-step scale) [2]: 2; Post-emergence action: Ipopur. (score, nine-step scale) [2]: 3; Post-emergence action: Panicum (score, nine-step scale) [2]: 2; Post-emergence action: Xanth. (score, nine-step scale) [2]: 3
CCOC(=O)C1(C)CCC(=O)C(C(=O)c2ccc(C(F)(F)F)nc2C)=C1O (centres unmarked) [Compound A2-B35]	2	4	2	2	2	2	1	3	2	1	1	2	
